PubChem BioAssay (NCI)
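1) Cells in 96-well plates. 2) Compound, 48 h, 5 concentrations. 3) Linear interpolation between surrounding doses. 4) Unreached endpoint = highest concentration. Here, GI50 denotes the concentration required for 50% inhibition of growth. The concentration for full growth arrest is given as TGI.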

Legend:
Assay in all cases: DTP human tumour cell line panel, 48 h
[1] = test system: LOX IMVI melanoma
[2] = test system: HOP-92 NSCLC
[3] = test system: A498 renal
[4] = test system: SK-MEL-2 melanoma
[5] = test system: NCI-H460 lung
[6] = test system: K-562 leukemia
[7] = test system: MDA-MB-435
[8] = test system: OVCAR-4 ovarian
[9] = test system: MOLT-4 leukemia
[10] = test system: HS 578T breast
[11] = test system: SF-539 CNS
[12] = test system: 786-0 renal
[13] = test system: HL-60(TB) leukemia
[14] = test system: MCF7 breast
[15] = test system: ACHN renal
[16] = test system: NCI/ADR-RES ovarian
[17] = test system: SK-MEL-28 melanoma
[18] = test system: SNB-75 CNS
[19] = test system: HCC-2998 colon
[20] = test system: NCI-H226 lung
[21] = test system: MDA-MB-231 breast
[22] = test system: SNB-19 CNS
[23] = test system: NCI-H23 lung
[24] = test system: BT-549 breast
[25] = test system: TK-10 renal
[26] = test system: HCT-15 colon
[27] = test system: NCI-H522 lung
[28] = test system: T-47D breast
[29] = test system: UACC-257 melanoma
[30] = test system: HT29 colon
[31] = test system: SR leukemia
[32] = test system: DU-145 prostate
[33] = test system: U251 CNS
[34] = test system: CAKI-1 renal
[35] = test system: PC-3 prostate
[36] = test system: RXF 393 renal
[37] = test system: HCT-116 colon
[38] = test system: SK-OV-3 ovarian
[39] = test system: EKVX NSCLC
[40] = test system: SN12C renal
[41] = test system: M14 melanoma
[42] = test system: HOP-62 NSCLC
[43] = test system: SK-MEL-5 melanoma
[44] = test system: UO-31 renal
[45] = test system: SF-268 CNS
[46] = test system: IGROV1 ovarian
[47] = test system: SW-620 colon
[48] = test system: A549 NSCLC
[49] = test system: OVCAR-5 ovarian
[50] = test system: RPMI-8226 leukemia
[51] = test system: MALME-3M melanoma
[52] = test system: OVCAR-3 ovarian
[53] = test system: CCRF-CEM leukemia
[54] = test system: COLO 205 colon
[55] = test system: OVCAR-8 ovarian
[56] = test system: SF-295 CNS
[57] = test system: UACC-62 melanoma
[58] = test system: KM12 colon

CC1(C)N=C(N)N=C(N)N1c1ccc(F)c(C(F)(F)F)c1 was tested, and the GI50 [1] was 0.4 µM, the TGI [1] was > 100 µM and the GI50 [2] was 12.4 µM. For the same compound, the TGI [2] was > 100 µM, the GI50 [3] was 9.84 µM and the TGI [3] was > 100 µM. For the same compound, the GI50 [4] was > 27.9 µM, the TGI [4] was > 100 µM and the GI50 [5] was 0.42 µM. The TGI [5] was > 100 µM, the GI50 [6] was 0.121 µM and the TGI [6] was > 100 µM. For the same compound, the GI50 [7] was 0.239 µM, the TGI [7] was > 100 µM and the GI50 [8] was 22.6 µM. The TGI [8] was > 100 µM, the GI50 [9] was 0.727 µM and the TGI [9] was > 100 µM. For the same compound, the GI50 [10] was 21.2 µM, the TGI [10] was > 100 µM and the GI50 [11] was 0.71 µM. The TGI [11] was > 100 µM, the GI50 [12] was 0.543 µM and the TGI [12] was > 100 µM. For the same compound, the GI50 [13] was 0.438 µM, the TGI [13] was > 100 µM and the GI50 [14] was 0.998 µM. The TGI [14] was > 100 µM, the GI50 [15] was 2.28 µM and the TGI [15] was > 100 µM. The GI50 [16] was > 83.6 µM, the TGI [16] was > 100 µM and the GI50 [17] was 15.9 µM. The TGI [17] was > 100 µM, the TGI [18] was > 100 µM and the GI50 [19] was 1.85 µM. The TGI [19] was > 100 µM, the GI50 [20] was > 27.6 µM and the TGI [20] was > 100 µM. For the same compound, the GI50 [21] was > 100 µM, the TGI [21] was > 100 µM and the GI50 [22] was 4.47 µM. The TGI [22] was > 100 µM, the GI50 [23] was 2.53 µM and the TGI [23] was > 100 µM. For the same compound, the GI50 [24] was 1.96 µM, the TGI [24] was > 87.9 µM and the GI50 [25] was 3.4 µM. For the same compound, the TGI [25] was > 100 µM, the GI50 [26] was 1.58 µM and the TGI [26] was > 100 µM. The GI50 [27] was 3.78 µM, the TGI [27] was > 100 µM and the GI50 [28] was > 90.7 µM. For the same compound, the TGI [28] was > 100 µM, the GI50 [29] was > 57.8 µM and the TGI [29] was > 100 µM. For the same compound, the GI50 [30] was 0.363 µM, the TGI [30] was > 100 µM and the GI50 [31] was 0.444 µM. For the same compound, the TGI [31] was > 100 µM, the GI50 [32] was 3.18 µM and the TGI [32] was > 100 µM. For the same compound, the GI50 [33] was 0.503 µM, the TGI [33] was > 100 µM and the GI50 [34] was 4.92 µM. For the same compound, the TGI [34] was > 93.1 µM, the GI50 [35] was 0.256 µM and the TGI [35] was > 100 µM. For the same compound, the GI50 [36] was > 31.5 µM, the TGI [36] was > 100 µM and the GI50 [37] was 0.172 µM. For the same compound, the TGI [37] was > 100 µM, the GI50 [38] was 10.7 µM and the TGI [38] was > 100 µM. The GI50 [39] was 1.53 µM, the TGI [39] was > 100 µM and the GI50 [40] was 5.13 µM. For the same compound, the TGI [40] was > 100 µM, the GI50 [41] was 0.827 µM and the TGI [41] was > 100 µM. For the same compound, the TGI [42] was > 100 µM, the GI50 [43] was 3.04 µM and the TGI [43] was > 100 µM. The GI50 [44] was 8.86 µM, the TGI [44] was > 100 µM and the GI50 [45] was 0.158 µM. For the same compound, the TGI [45] was > 100 µM, the GI50 [46] was 0.53 µM and the TGI [46] was > 100 µM. For the same compound, the GI50 [47] was 0.233 µM, the TGI [47] was > 100 µM and the GI50 [48] was 0.31 µM. The GI50 [49] was > 100 µM, the TGI [49] was > 100 µM and the GI50 [50] was 3.42 µM. For the same compound, the TGI [50] was > 100 µM, the GI50 [51] was 26.7 µM and the TGI [51] was > 100 µM. The GI50 [52] was 5.62 µM, the TGI [52] was > 100 µM and the GI50 [53] was 0.532 µM. For the same compound, the TGI [53] was > 100 µM, the GI50 [54] was 5.11 µM and the TGI [54] was > 100 µM. For the same compound, the GI50 [55] was 0.597 µM, the TGI [55] was > 100 µM and the GI50 [56] was 0.408 µM. The GI50 [57] was 2.25 µM, the TGI [57] was > 100 µM and the GI50 [58] was 1.81 µM. For the same compound, the TGI [58] was > 100 µM.
